Data: article PMC12030627, “Radioiodinated Bicyclic RGD Peptide Derivatives for Enhanced Tumor Accumulation” (Pharmaceuticals, 2025)
Read-outs that look alike come from different tables or passages of the source. Starred links: 1 amine or outer side, 2 acyl side, 3 side chain; linkers in the order of their positions; H or OH if unused. Positions of bridges follow the written chain, without caps; N, C: chain ends. Non-standard residues stand in square brackets, D forms with d. Residues, ends and D or L forms follow the SMILES beside them. *: point of attachment. TBMB = c1c(C[*:1])cc(C[*:3])cc1C[*:2]; Palmitoyl = CCCCCCCCCCCCCCCC(=O)*; Benzoyl(3-I) = O=C(c1cccc(I)c1)*; 4Abz = Nc1ccc(C(=O)O)cc1

Experiments:
integrin αVβ3 / αVβ5 = conditions: cited from earlier work
Source text: A radiolabeled probe based on this bicyclic peptide, [^125I]bcRGD, was synthesized and shown to selectively accumulate in αVβ3-expressing cancer cells and xenograft models in mice. However, like many l ...

[1] = Octanol–water distribution coefficient (log D); assay type: physicochemical; conditions: shake-flask 1-octanol/PBS(–) pH 7.4, 1.0 mL each (1:1), 40 kBq, vortexed 2 min, centrifuged 5000 rpm 5 min, radioactivity by γ-counter, mean of n = 4
Method: For log D determination, [^125I]bcRGD, [^125I]bcRGDpal, [^125I]bcRGDiba, or [^125I]bcRGDdimer (40 kBq) was dissolved in 1.0 mL PBS(–) (pH 7.4) and mixed with 1.0 mL 1-octanol (1:1, v/v). The mixture was vortexed for 2 min and centrifuged at 5000 rpm for 5 min. Radioactivity in 0.5 mL of each phase was measured using a γ-counter, and log D values were calculated based on the radioactivity distribution (n = 4).

[2] = Albumin binding, size-exclusion spin column elution after incubation with mouse plasma; assay type: in vitro ADME; conditions: 37 kBq in 50 μL PBS(–) incubated 37 °C 10 min with 200 μL mouse plasma (male ddY); Sephadex G-50 Fine spin column, 2000 rpm 2 min; γ-counter; eluted/added radioactivity × 100
Method: To assess albumin binding, mouse plasma was obtained by centrifugation of whole blood from male ddY mice (9 weeks old). [^125I]bcRGD, [^125I]bcRGDpal, [^125I]bcRGDiba, or [^125I]bcRGDdimer (37 kBq) in 50 μL PBS(–) was incubated at 37 °C for 10 min with 200 μL of PBS(–), mouse plasma, or human serum albumin (HSA, 45 mg/mL in PBS(–); Wako Pure Chemical Industries, Osaka, Japan). The mixtures were applied to gel filtration spin columns (Sephadex G-50 Fine; Cytiva, Tokyo, Japan), centrifuged (2000 rpm, 2 min), and radioactivity in the eluted fraction was measured with a γ-counter. The high molecular weight fraction was calculated as the elution ratio = (radioactivity in elution)/(added radioactivity) × 100 (%).

[3] = Biodistribution in U-87 MG tumor-bearing mice; assay type: in vivo, BALB/c nu-nu mice; conditions: mouse, total radioactivity, 2 h post-administration, tumor-bearing mice, comparator value, no method or n printed for this probe
Method: Animal experiments were performed in compliance with institutional animal care regulations, with the study protocol approved by the Experimental Animal Committee of Osaka Medical and Pharmaceutical University (Approval Numbers: 21–76, 22–76, and 23–76). Four-week-old male BALB/c nu-nu mice (Japan SLC, Shizuoka, Japan) were housed under a 12 h light/12 h dark cycle with free access to food and water. Tumor-bearing mice were established by suspending U-87 MG cells (2 × 10^6 cells/mouse) in PBS(–) and subcutaneously injecting 100 μL of the suspension into the right hind leg. For co-implantation models, A549 cells (2 × 10^6 cells/mouse) were suspended in PBS(–) and inoculated (100 μL) into the left hind leg of the same mice already inoculated with U-87 MG cells. Mice with tumor size approximately 10 mm in diameter, 4–5 weeks after inoculation, were used for biodistribution studies. Animals in which either tumor was not viable were excluded from the experiment.
U-87 MG-bearing mice (n = 42, 8–9 weeks old; 22–27 g) were randomly assigned into groups and administered [^125I]bcRGDpal or [^125I]bcRGDiba via intravenous injection (37 kBq in 100 μL of PBS containing 0.1% Tween 80 (PBS-T80)). At 5 min, 30 min, 1 h, 2 h, 6 h, 12 h, or 24 h post-injection, the mice were euthanized (n = 3 per time point). The heart, kidneys, liver, brain, pancreas, spleen, lung, small intestine, large intestine, muscle, skin, stomach, bone, and tumors were excised. Each organ’s weight and radioactivity were measured by a NaI well-type scintillation counter, and the % ID/g was calculated. To investigate the correlation between integrin expression and radioactivity accumulation, biodistribution at 2 h after administration of [^125I]bcRGDpal or [^125I]bcRGDiba was assessed in A549 and U-87 MG co-implantation mice (n = 5) using the same procedure. Additionally, co-implantation mice were injected with [^125I]bcRGDdimer (37 kBq/100 μL PBS-T80) and euthanized at 30 min, 2 h, and 4 h post-injection (n = 4 per time point), and % ID/g values were calculated as described above. The minimum sample size needed for the biodistribution study in U-87 MG-bearing mice was calculated using G Power software version 3.1.9.7. The calculation was based on a two-tailed test, with an effect size of 3.9, a significance level (α) of 0.05, and a statistical power (1 − β) of 0.8. […] The minimum required sample size for the biodistribution study in A549 and U-87 MG co-implantation mice was also calculated to be four animals per group (effect size = 2.5, α = 0.05, 1 − β = 0.8). To guarantee objective results, the experiment was carried out in a blinded manner. Specifically, drug administration and radioactivity measurements were conducted by different investigators to eliminate potential bias.

human serum albumin = biological target: T1, human serum albumin (human, UniProt P02768 25-609); test: SEC; [^125I]-peptide (37 kBq in 50 μL PBS(-)) with 200 μL HSA (45 mg/mL in PBS(-)), 37 °C, 10 min; Sephadex G-50 Fine gel filtration spin column, 2000 rpm, 2 min; radioactivity in the eluted high molecular weight fraction as % of that added; conditions: both partners purified
T1 construct: human serum albumin, 45 mg/mL in PBS(-); also called HSA; source: bought: Wako Pure Chemical Industries

| Molecule | αVβ3/αVβ5 selectivity ratio (ratio of corresponding IC50 values) (integrin αVβ3 / αVβ5) | elution ratio (high molecular weight fraction) with HSA (human serum albumin) [%] | further results |
| --- | --- | --- | --- |
| cyclo-(RGDfK) | 0.2 |  |  |
| CC(=O)N[C@@H](CCCCNC(=O)c1cccc(I)c1)C(=O)N1CCC[C@H]1C(=O)N1CCC[C@H]1C(=O)N1CCC[C@H]1C(=O)N[C@@H](CO)C(=O)NCC(=O)Nc1ccc(C(=O)N[C@@H](CO)C(=O)NCC(=O)N[C@H]2CSCc3cc4cc(c3)CSC[C@@H](NC(=O)[C@H](CCC(N)=O)NC(=O)[C@@H]3CCCN3C(=O)[C@H](Cc3c[nH]cn3)NC2=O)C(=O)N[C@@H](CCCNC(=N)N)C(=O)NCC(=O)N[C@@H](CC(=O)O)C(=O)N[C@@H](C(N)=O)CSC4)cc1 [[^125I]bcRGD, reference compound] (Ac-K(Benzoyl(3-I))PPPSG[4Abz]SGCHPQ[dC]RGD[dC]-NH2; linker 10-14-18 via TBMB) |  |  | logD [1]: -2.02; Elution rate from size-exclusion resin (high molecular weight fraction), mouse plasma [2]: 2%; tissue uptake at 2 h ([3]; U-87 MG tumor, read-out: Tumor-accumulated radioactivity (U-87 MG)): 0.7 %ID/g; tissue uptake at 2 h ([3]; blood, read-out: Blood radioactivity level): 0.3 %ID/g |
| cilengitide | 4.7 |  |  |
| Palmitoyl-K((125I)3‑iodobenzoyl)PPPSG[4Abz]SGCHPQ[dC]RGD[dC]-NH2 (linker 10-14-18 via TBMB (inferred)) [[^125I]bcRGDpal] |  | 80 |  |
| {4‑(p-iodophenyl)butyryl}-K((125I)3‑iodobenzoyl)PPPSG[4Abz]SGCHPQ[dC]RGD[dC]-NH2 (linker 10-14-18 via TBMB (inferred)) [[^125I]bcRGDiba] |  | 60 |  |
